According to patent publication US20160287534A1, “METHODS FOR REVERSING FIBROSIS” (The University of Connecticut, priority 2015, published 2016):

Assays:
LX-2 cells [1] = experiment: Cytotoxicity test (Cell Counting Kit-8); assay type: cell-based; conditions: ASTX up to 25 μM, 24 h (FIG. 1A)
Description: LX-2 cells were incubated with 0-200 μM ASTX for 24 h and its cytotoxicity was measured using a Cell Counting Kit-8 (Dojindo Inc., Rockville, Md.) as previously described (see Yang et al. Food Chem. Toxicol. 2011, vol. 49, pp. 1560-1564). Positive control (0.5 mM SDS) was run in parallel.

LX-2 cells [2] = experiment: Reactive oxygen species (ROS) measurement in LX-2 cells stimulated with TGFβ1 or tBHP; assay type: cell-based
Description: Cellular ROS levels were measured in LX-2 cells as previously described (see Lee et al. J. Nutr. Biochem. 2013, vol. 25, iss. 4, pp. 404-411). Briefly, LX-2 cells were plated in a black 24-well plate (Wallac Oy, Turku, Finland). When cells reached ˜90% confluency, they were pre-incubated with 5, 10 or 25 μM ASTX for 24 h and subsequently stimulated with 2 ng/mL TGFβ1 or 10 μM tert-butyl hydrogen peroxide (tBHP, Sigma, St. Louis, Mo.) for additional 24 h. cells were then incubated with 5 μM dichlorofluorescein (Sigma, St. Louis, Mo.) for 30 min and fluorescence was read at an excitation wavelength of 485 nm and an emission wavelength of 530 nm. The data were expressed as fluorescent intensity per μg of cell protein.

Smad3 = experiment: Western blot of Smad3 phosphorylation and nuclear translocation in LX-2 cells; assay type: cell-based
Description: Whole cell lysates were prepared to conduct Western blot as we previously described (Id.) using antibodies against α-SMA (Sigma, St. Louis, Mo.), Smad3 (Millipore, Billerica, Mass.), and phospho-Smad3 (Cell Signaling, Danvers, Mass.). β-Tubulin (Santa Cruz Biotechnology, Santa Cruz, Calif.) or β-actin (Sigma, St. Louis, Mo.) was used as a loading control. For Western blot of nuclear and cytoplasmic cell fractions, the fractions were prepared using a nuclear extraction kit (Cayman, Ann Arbor, Mich.) as previously described (see Ku et al. Biochim. Biophys. Acta Gen. Subj. 2013, vol. 1830, pp. 2981-2988). Glyceraldehyde 3-phosphate dehydrogenase (GAPDH) (Santa Cruz Biotechnology, Santa Cruz, Calif.) and lamin B (Santa Cruz Biotechnology) were used as a loading control for cytoplasmic and nuclear fractions, respectively. Blots were developed using Westpico horseradish peroxidase chemiluminescence (Pierce, Rockford, Ill.) and images were analyzed using a Chemidoc XRS+system (Bio-Rad) and Image Lab software (Bio-Rad).

mouse primary HSCs = experiment: Activation of mouse primary qHSCs (Example 2): morphology, qRT-PCR, Western blot; assay type: cell-based
Description: (§1) Mouse primary HSCs were isolated from C57BL/6J, nuclear erythroid 2-related factor 2 (NRF2) knockout (Nrf2−/−), and wild-type mice using a pronase/collagenase digestion method as described herein Example 1. The cells were then cultured on untreated petri dishes (BD Falcon, Franklin Lakes, N.J.), and maintained in a low-glucose DMEM medium supplemented with 10% FBS, 4 mM L-glutamine, and P/S (100 U/100 μg per mL). Human primary HSCs (Zen-Bio, Research Triangle Park, N.C.) were maintained in a low-glucose DMEM medium containing 2% FBS, 4 mM L-glutamine, 1× nonessential amino acids, 1× vitamins, and P/S (100 U/100 μg per mL). The cells were seeded on a collagen-coated plate for experiments (Sarstedt, Newton, N.C.). LX-2 cells, kindly provided by Dr. Scott Friedman at the Icahn School of Medicine at Mount Sinai (New York, N.Y.), were maintained in a low-glucose DMEM supplemented with 2% FBS, 4 mM L-glutamine, and P/S (100 U/100 μg per mL). All cells were cultured in a 37° C. humidified cell culture chamber with 5% CO2. Cell culture supplies were purchased from HyClone unless stated otherwise (Thermo Scientific, Logan, Utah).
(§2) ASTX, provided by Fuji Chemical Industry Co., Ltd. (Toyama, Japan), was prepared in DMSO as described herein in Example 1. After plated on an uncoated dish, mouse qHSCs were incubated with 25 μM ASTX during activation. aHSCs, which were prepared by culturing qHSCs on an uncoated dish for 6 d, were incubated with 25 μM ASTX for 2 or 4 more days. Also, cells were incubated with 3 μM tert-butyl hydrogen peroxide (tBHP, Thermo Scientific) for 12 h with or without 25 μM ASTX. Medium containing ASTX was replenished daily and DMSO vehicle control was always run in parallel. Human primary HSC were treated with 25 μM ASTX for 24 h, after which they were activated by 3 ng/mL of TGFβ1 (Peprotech, Rocky Hill, N.J.) for 24 h.
(§3) Total RNA extraction, cDNA synthesis, and qRT-PCR were conducted using a Bio-Rad CFX96 Real-Time system (Bio-Rad, Hercules, Calif.) as previously described (Id.). Primer sequences will be available upon request.
(§4) Whole cell lysates and human tissue protein extracts were prepared and Western blot analysis were performed as described (Id.) using antibodies against α-SMA (Sigma, St. Louis, Mo.), HDAC3 (Santa Cruz Biotechnology, Santa Cruz, Calif.), HDAC4 (Santa Cruz Biotechnology), HDAC9 (Abcam, Cambridge, Mass.; Novus Biologicals, Littleton, Colo.), Col1A1 (Sigma). β-tubulin (Santa Cruz) or glyceraldehyde 3-phosphate dehydrogenase (GAPDH) (Santa Cruz) was used as a loading control.

[3] = test system: HSCs from wild-type and Nrf2−/− mice; experiment: qRT-PCR of HSCs from wild-type and Nrf2−/− mice; assay type: cell-based, mouse
Description: as §1, §2, §3

[4] = test system: HDAC9 and myocyte enhancer factor 2 (MEF2); experiment: HDAC and MEF2 mRNA and protein expression in mouse primary HSCs; assay type: cell-based
Description: as §2, §3, §4

LX-2 cells [5] = experiment: qRT-PCR of fibrogenic genes in LX-2 cells (Example 2); assay type: cell-based
Description: as §1
Total RNA extraction, cDNA synthesis, and qRT-PCR were conducted using a Bio-Rad CFX96 Real-Time system (Bio-Rad, Hercules, Calif.) as previously described (Id.). Primer sequences will be available upon request. […]

[6] = ASTX added at day 4 for 2 d during HSC activation (FIG. 8B)
[7] = ASTX added at day 4 for 2 d during HSC activation (FIG. 10D)

CC1=C(/C=C/C(C)=C/C=C/C(C)=C/C=C/C=C(C)/C=C/C=C(C)/C=C/C2=C(C)C(=O)C(O)CC2(C)C)C(C)(C)CC(O)C1=O (stereo not drawn) [ASTX, astaxanthin]
cell viability (LX-2 cells [1]): more than 90% | increase in cellular ROS levels induced by TGFβ1 (LX-2 cells [2]; 25 μM ASTX, 2 ng/mL TGFβ1): completely abolished | increase in cellular ROS levels induced by tBHP (LX-2 cells [2]; 25 μM ASTX, 10 μM tBHP): completely abolished | cellular ROS levels increased by TGFβ1 and tBHP (LX-2 cells [2]; LX-2 cells pretreated with 5, 10 or 25 μM ASTX 24 h (FIGS. 1B, 1C)): decreased | TGFβ1-induced phosphorylation of Smad3 (Smad3; 25 μM ASTX (FIG. 5A)): significantly inhibited | nuclear translocation of Smad3 (Smad3; 25 μM ASTX (FIG. 5B)): reduced | NOX2 mRNA (mouse primary HSCs; [6]): decreased | NOX4 mRNA (mouse primary HSCs; [6]): significantly increased | protein levels of α-SMA (mouse primary HSCs; ASTX for 2 days during activation (FIG. 7C)): noticeably decreased | cytoplasmic lipid droplets (mouse primary HSCs; day 6, cells treated with ASTX for 2-6 days (FIG. 7A)): more lipid droplets than controls | cell morphology vs control (mouse primary HSCs; days 2 and 4 of activation, 25 μM ASTX (FIG. 7A)): no noticeable differences | α-SMA and Col1A1 mRNA (mouse primary HSCs; during activation of qHSCs, 25 μM ASTX (FIG. 7B)): significantly decreased | α-SMA and Col1A1 mRNA ([3]; both wild-type and Nrf2−/− HSCs, activated 6 d with ASTX (FIG. 8C)): able to decrease | tBHP-increased α-SMA expression ([3]; both wild-type and Nrf2−/− HSCs, tBHP at day 6 for 12 h (FIG. 8D)): attenuated | NRF2 expression ([3]; wild-type HSCs (FIG. 8D)): significantly decreased | HDAC2 protein level [4, 7]: minimally altered | decrease of HDAC3 and 4 protein levels [4, 7]: ~50% | decrease of HDAC9 protein level [4, 7]: ~70% | mRNA levels of HDAC9 ([4]; aHSCs incubated with ASTX for 2 d (FIG. 10F)): significantly repressed | mRNA levels of MEF2 isoforms ([4]; aHSCs incubated with ASTX for 2 d (FIG. 10G)): significantly repressed | induction of MEF2a, 2c and 2d mRNA ([4]; during HSC activation, ASTX for 2 d from day 4 (FIG. 10E)): significantly attenuated | HDAC9 mRNA induction ([4]; during activation of qHSCs (FIG. 10B)): significantly decreased | basal levels of α-SMA and Col1A1 expression (LX-2 cells [5]; LX-2 cells pretreated with ASTX 12 h (FIG. 13A)): repressed | α-SMA and Col1A1 expression induced by TGFβ1 (LX-2 cells [5]; LX-2 cells, ASTX 12 h, then 3 ng/mL TGFβ1 12 h (FIG. 13A)): attenuated
